Data reported in patent US20210267981A1, “COMPOUNDS FOR THE TREATMENT OF HIV INFECTION AND OTHER DISEASES CAUSED BY RNA VIRUSES” (UNIVERSIDAD CATOLICA DE VALENCIA "SAN VICENTE MARTIR", priority 2018, published 2021).
Like-named read-outs stand apart in the source and are kept apart here.

Assays:
complete RRE-Rev complex = test: Electrophoretic mobility shift assay (EMSA) of complete RRE-Rev complex formation; format: binding, HIV-1; settings: for IC50: 78 nM RRE and 1.32 μM Rev, two independent experiments
Description: Electrophoretic Mobility Shift Assays (EMSA).
These experiments used 78 nM of complete RRE, 1.32 μM of complete Rev, and increasing concentrations of each compound, and were carried out and analyzed as described previously in the state of the art (Prado et al., Biochem Pharmacol 107 (2016) 14-28; Fang et al., Cell 155(3) (2013) 594-605). The IC50 values were determined by measuring the area and the intensity of the band corresponding to free RRE. These experiments were performed at least three times for each compound.
(§1) The capacity of the compounds to inhibit IIB-Rev34-50 interaction was evaluated by means of an assay based on the detection, by means of fluorescence anisotropy (FA), of the shift of an FITC-labeled Rev34-50 peptide from its binding site in subdomain IIB of RRE. The capacity of the compounds to inhibit the formation of the RRE-Rev complex was evaluated by means of an electrophoretic mobility shift assay (EMSA).

[1] = system: subdomain IIB of the RRE (IIBh-19ap RNA); test: Fluorescence intensity binding to IIBh RNA, with or without competing RNAtCys or LTRd DNA; set-up: species or system HIV-1; settings: for specificity of the interaction with IIB: 100-fold molar excess of RNAtCys or LTRd; for specificity IIB/DNA: Kd(IIBh)/Kd(IIBh + LTRd) quotient; for specificity IIB/RNA: Kd(IIBh)/Kd(IIBh + tRNA) quotient
Description: Depending on the absorption spectra of the compounds, these experiments measured association with IIBh-19ap or IIBh-23fl RNA sequences labeled with 2-aminopurine and fluorescein in residues A19 and U23 of the IIB loop, respectively (Prado et al., Biochem Pharmacol 107 (2016) 14-28), and were carried out in a SPECTRA GEMINI XPS plate reader (Molecular Devices, Sunnyvale, USA) or a Victor X5 plate reader (Perkin Elmer). The IIB RNA concentration in these assays was 100 nM, and the specificity of the interactions with respect to RNA and DNA was evaluated by duplicating the experiments in the presence of a 100-fold molar excess (10 μM) of RNAtCys or LTRd DNA duplex. All the fluorescence intensity experiments were performed at least three times for each compound.
The specificity of the interaction was evaluated by duplicating the experiments in the presence of a 100-fold molar excess of RNAtCys. Likewise, specificity with respect to a double-stranded DNA was evaluated by further performing the experiments with a 100-fold molar excess of a DNA duplex with 26 base pairs (identified as LTRd) containing NF-κB and Sp-1 transcription factor-binding sites (Prado et al., Biochem Pharmacol 107 (2016) 14-28). These two factors bind to the LTR promoter of HIV-1 DNA and are essential for virus replication (Jones et al., AnnuRevBiochem 63 (1994) 717-43).

[2] = system: IIB-Rev34-50 interaction (subdomain IIB of RRE and FITC-labeled Rev34-50 peptide); test: Fluorescence anisotropy (FA) inhibition of IIBh-Rev34-50 interaction; format: binding, HIV-1
Description: Fluorescence Anisotropy (FA).
These experiments were performed and analyzed as described in the state of the art (Prado et al., Biochem Pharmacol 107 (2016) 14-28; Gonzalez-Bulnes et al., Angewandte Chemie-International Edition 52(50) (2013) 13405-13409; Luedtke et al., Biopolymers 70(1) (2003) 103-19), using 96-well plates and Victor X3 or Victor X5 plate readers (Perkin Elmer, Waltham USA). The assays used 10 nM of frevp and 60 nM of IIBh, and included one positive control (a mixture of IIBh and frevp) and two negative controls (frevp and a mixture of IIBh, frevp, and neomycin B). IIBh-frevp inhibition was only considered to exist when anisotropy reached the expected minimum value at the highest inhibitor concentrations. To ensure that there would not be spectral superposition with FITC, anisotropy data was also collected for each of the compounds. None of them emitted fluorescence under the assay conditions. These experiments were repeated three times for each compound.
as §1

IIBh RNA = test: NMR spectroscopy of compound binding to IIBh RNA; set-up: species or system HIV-1; settings: increasing ligand:RNA molar ratios
Description: The NMR spectra were acquired in a 500 MHz Bruker Avance spectrometer and analyzed with Topspin 3.5 (Bruker Biospin, Billerica, USA). The interaction between the tested compounds and IIBh RNA samples dissolved at a concentration of 40-60 μM were monitored as described previously in the state of the art (Prado et al., Biochem Pharmacol 107 (2016) 14-28; Gonzalez-Bulnes et al., Angewandte Chemie-International Edition 52(50) (2013) 13405-13409), using one-dimensional and two-dimensional experiments (TOCSY) at increasing ligand:RNA molar ratios.
NMR spectroscopy is then used for identifying the binding sites in the IIBh fork of the compounds. […] This compound altered the signals of residues C9, A19, C20, and U23 comprising the Rev binding site, but also disrupted the signals of the double-helix stems flanking the loop. 2a and 2b required a higher drug:RNA molar ratio to induce changes in the signals of IIBh RNA.

HIV-1 = test: Anti-HIV-1 activity, cell infection assay in MT-2 cells (pNL4.3-Ren supernatants); format: cell-based
Description: Plasmids, Virus, and Cells for Ex Vivo Assays.
Vectors pNL4.3-Luc and pNL4.3-Ren were generated by cloning luciferase and Renilla genes, respectively, in the nef site of HIV-1 proviral plasmid pNL4.3 (Adachi et al., J Virol 59(2) (1986) 284-91), as described previously in the state of the art (Garcia-Perez et al., J Med Virol 79(2) (2007) 127-37). MT-2 cells (Harada et al., Science 229(4713) (1985) 563-6) and 293T cells (American Type Culture Collection, Rockville, USA) were cultured as described previously (Prado et al., Biochem Pharmacol 107 (2016) 14-28).
(§2) Anti-HIV-1 Activity and Cell Toxicity.
(§3) The methodology used for performing and analyzing these experiments has been described previously (Prado et al., Biochem Pharmacol 107 (2016) 14-28; Gonzalez-Bulnes et al., Angewandte Chemie-International Edition 52(50) (2013) 13405-13409). Briefly, infectious supernatants were obtained from 293T cells transfected with the pNL4.3-Ren plasmid. MT-2 cells were infected with these supernatants in the presence of the compounds, and the anti-HIV activity was quantified 48 h after infection by determining luciferase activity in the cell lysates. Cell viability was evaluated in cells treated with the same compound concentrations using the CellTiter-Glo assay (Promega). The antiviral activity and cell toxicity results represent the average of at least three independent experiments.

[3] = Cell toxicity, CellTiter-Glo assay; format: cell-based; settings: human
Description: as §2, §3

MT-2 cells = test: Cell toxicity, CellTiter-Glo assay; format: cell-based; settings: CC50 versus antiviral concentration of the infection experiments
Description: as §2, §3

[4] = system: complete HIV-1 (NL4.3-luc); test: Cell transfection assay, full-length HIV-1 luciferase plasmid (NL4.3-luc) in MT-2 cells; format: cell-based
Description: (§4) Cell Transfection Assays.
(§5) MT-2 cells were transfected with plasmids containing a luciferase reporter gene the expression of which was under the control of the complete HIV-1 (NL4.3-luc) or HIV-1 LTR promoter (LTR-Luc). After transfection, the cells were treated with different compound concentrations, and the luciferase activity in the cell lysates was quantified 48 h later (Prado et al., Biochem Pharmacol 107 (2016) 14-28; Gonzalez-Bulnes et al., Angewandte Chemie-International Edition 52(50) (2013) 13405-13409).
In order to identify the target or the set of targets of the tested compounds, an assay based on the transfection of a full-length HIV-1 vector is performed. In this experiment, the entry, reverse transcription, and DNA integration phases of the viral cycle are sidestepped, such that only transcriptional or post-transcriptional events which can be blocked by the inhibitor under study are produced.

[5] = system: HIV-1 LTR promoter (LTR-Luc); test: Cell transfection assay, LTR-Luc plasmid in MT-2 cells; format: cell-based; settings: for EC50: read-out: EC50 of transfection, LTR; for inhibition of LTR-dependent expression: compared with HIV-1 infection and transfection assays
Description: as §4, §5
The antiviral mechanism of compounds 1a and 2a was examined with additional cellular assays.

[6] = system: HIV-1 RNA transcripts (RRE-Rev system in a cellular context); test: HIV-1 RNA processing analysis by RT-qPCR in MT-2 cells transfected with pNL4.3; format: cell-based; settings: 5 and 10 μM
Description: HIV-1 RNA Processing Analysis.
MT-2 cells, previously treated for 72 or 96 hours with two different concentrations (5 and 10 μM) of compound 1a or 2a, were transfected with a pNL4.3 plasmid. Total cellular RNA was then isolated, treated with DNase I, and reverse transcribed as described in the state of the art (Prado et al., Biochem Pharmacol 107 (2016) 14-28). The unprocessed, semi-processed, and completely processed HIV-1 RNA transcripts were quantified by means of qPCR in relation to an untreated control obtained, using primers described by Mohammadi et al. (PLoS Pathog 9(1) (2013) e1003161), and GAPDH as endogenous control.
Whether or not compounds 1a and 2a acted in the RRE-Rev system in a cellular context was then verified. After transfecting the cells with a full-length proviral vector, the amounts of unprocessed, semi-processed, and completely processed HIV-1 RNA transcripts were quantified by means of RT-qPCR in the absence and presence of each compound (Prado et al., Biochem Pharmacol 107 (2016) 14-28). Given that Rev indirectly puts the splicing process at a disadvantage by transporting unprocessed or semi-processed viral transcripts from the nucleus to the cytoplasm, the blocking of the RRE-Rev system should increase the levels of completely processed species and reduce the amount of unprocessed or semi-processed HIV-1 transcripts.

[7] = IIBh-19ap, 100-fold molar excess of LTRd DNA duplex, read-out: Kd(IIBh + LTRd)
[8] = IIBh-19ap, 100-fold molar excess of RNAtCys, read-out: Kd(IIBh + tRNA)
[9] = IIBh-19ap, no competitor, read-out: Kd(IIBh)
[10] = 60 nM IIBh and 10 nM frevp, three independent experiments, read-out: IC50 IIB-Rev34-50
[11] = range given for FA and EMSA together for 2a and 2b, read-out: IC50 (FA, IIB-Rev34-50 interaction)
[12] = Human immunodeficiency virus 1, MT2, 48 h, read-out: EC50 of infection, HIV
[13] = Human immunodeficiency virus 1, MT2, read-out: EC50 cell infection assay
[14] = MT-2 cells, CellTiter-Glo, read-out: CC50
[15] = Human immunodeficiency virus 1, MT2, 48 h, read-out: EC50 of transfection, HIV
[16] = Human immunodeficiency virus 1, MT2, read-out: EC50 transfection assay of full-length HIV-1 vector

| SMILES | IC50 (complete RRE-Rev complex) | specificity of the interaction with IIB [1] | Kd [1, 7] | Kd [1, 8] | Kd [1, 9] | specificity IIB/DNA [1] | specificity IIB/RNA [1] | IC50 [2, 10] | IC50 [2, 11] | changes of IIBh RNA NMR signals (IIBh RNA) | EC50 (HIV-1; [12]) | EC50 (HIV-1; [13]) | CC50 [3, 14] | CC50 values fold greater than the antiviral concentrations (MT-2 cells) | EC50 [4, 15] | inhibition of LTR-dependent expression [5] | effect on pattern of unprocessed, semi-processed and completely processed HIV-1 RNA transcripts [6] | levels of viral transcripts in relation to untreated cells [6] | EC50 [4, 16] | further results |
| --- | --- | --- | --- | --- | --- | --- | --- | --- | --- | --- | --- | --- | --- | --- | --- | --- | --- | --- | --- | --- |
| N=c1c(S(=O)(=O)c2ccc(Cl)cc2)cc2c(=O)n3ccccc3nc2n1C1CCCCC1 [Compound 2b] | 13.7 µM | specific | 10.2 µM | 11.4 µM | 12.1 µM | 1.19 | 1.06 | 10.3 µM | 10.3 to 13.7 µM | only induced the widening of signals of residue U23 of the loop at a high drug:RNA molar ratio | 10.2 µM | 10.2 µM | > 100 µM | > 10 fold | > 100 µM |  |  |  |  | activity in the transfection assay ([4]; at concentrations lower than 100 μM): inactive |
| Fc1nc(N2CCNCC2)c(F)c(Sc2ccc(Cl)cc2)c1F [Compound 2a] | 4.7 µM | specific | 9.2 µM | 9 µM | 10.8 µM | 1.17 | 1.20 | 4.8 µM |  | affected the signals of residues located in the stems flanking the internal loop | 2 µM | 2 µM |  | 22 fold | 3.3 µM | inhibited LTR-dependent expression with an EC50 value similar to those measured in the HIV-1 infection and transfection experiments | did not induce clear changes in the patterns of unprocessed viral transcripts with respect to processed viral transcripts | reduced the amount of viral transcripts to a lesser extent with respect to 1a | 2.5 to 3.3 µM | EC50 ([5]; Human immunodeficiency virus 1, MT2, MT-2 cells, LTR-Luc, 48 h): 4.4 µM; CC50 [3]: 43.9 µM |
| CN(C)CCOc1cc2c(c3ccccc13)-c1ccccc1C2=O [Compound 1a] |  | moderate specificity | 2.8 µM | 2.4 µM |  | 0.50 | 0.58 |  | 6.7 µM | widened or altered the chemical shift of IIBh resonances at low drug:RNA molar ratios | 0.83 µM | 0.83 µM | 28.1 µM | 34 fold | 2.5 µM | weaker inhibition of LTR-dependent expression in relation to the activity detected in the complete HIV-1 transfection assay | This effect was clearly observed | significant reduction in the levels of viral transcripts | 2.5 to 3.3 µM | EC50 ([5]; Human immunodeficiency virus 1, MT2, 48 h): 12.5 to 25 µM; concentrations at which formation of RRE-Rev complexes with an unusual molecular weight was promoted (complete RRE-Rev complex): greater than 10 μM; Kd ([1]; fluorescence intensity, read-out: Kd for subdomain IIB of the RRE): 1.4 µM |
